In test [1] the target is T1, HIS-FLAG-tagged LiTryR dimer (Leishmania infantum, UniProt A4HSF7).
T1 construct: made in house; host or cells: E. coli BL21 (DE3) Rossetta 2
In words: LiTryR dimer quantitation assay (ELISA). The format is biochemical. To be noted: 16 h at 37 °C; for IC50: HIS-FLAG-LiTryR 400 nM, Tris pH 8.0, 300 mM NaCl, compounds 25 to 3.1 μM, IC50 ± SE, three independent experiments in triplicate, read-out: IC50dim, LiTryR dimer quantitation. How it is done:
The relative amount of the LiTryR dimeric form in the presence of the SMPCs was assessed using an enzyme-linked immunosorbent assay (ELISA), developed in our laboratory. Briefly, HIS-FLAG-tagged LiTryR (400 nM) was incubated in dimerization buffer (1 mL of 50 mM Tris pH 8.0 and 300 mM NaCl) for 16 h at 37 °C with vigorous shaking and in a humid atmosphere in the presence of the different compounds ranging from 25 to 3.1 μM. Following a 15 min centrifugation at 18,000× g and room temperature, the supernatants were added to the α-FLAG-coated plates (200 μL/well) and incubated for 30 min at 37 °C with vigorous shaking in a humid atmosphere. The plates were washed five times with TTBS buffer (2 mM Tris pH 7.6, 138 mM NaCl, and 0.1% Tween-20) and incubated with diluted monoclonal α-HIS horseradish peroxidase (HRP)-conjugated antibody (200 μL/well, 1:50,000, Abcam, Cambridge, UK) in fatty acid- and essentially globulin-free bovine serum albumin (5%) prepared in TTBS buffer for 1 h at room temperature. The plates were washed again five times and the o-phenylenediamine dihydrochloride substrate, prepared according to the manufacturer’s instructions, was added (100 μL/well). The enzymatic reactions were stopped after 5 min by addition of […] (100 μL/well) and the absorbances were measured at 490 nm in an EnSpire Multimode Plate Reader (PerkinElmer, Waltham, MA, USA).
For IC50 determinations, the absorbance values in the presence of different concentrations of inhibitor were normalized as a percentage with respect to the absorbance value in the presence of DMSO. The IC50 values were obtained by fitting these percentages to a nonlinear regression model with GraFit 6 software (Erithacus, Horley, Surrey, U.K.). The assays were carried out in triplicate and repeated three times.

For test [2], the target named is T2, Leishmania infantum trypanothione disulfide reductase (LiTryR) (Leishmania infantum, UniProt A4HSF7).
T2 construct: HIS; made in house; host or cells: E. coli BL21 (DE3) Rossetta 2
As to the kind of experiment: LiTryR oxidoreductase activity assay (DTNB-coupled). The format is biochemical. Conditions: no preincubation; for IC50: modified DTNB-coupled assay, 26 °C, HEPES pH 7.5, HIS-LiTryR 7 nM, TS2 1 μM, NADPH 150 μM, inhibitor 0.1-25 μM, IC50 ± SE, three independent experiments in triplicate, read-out: IC50act, LiTryR oxidoreductase activity. How it is done: LiTryR oxidoreductase activity was assessed spectrophotometrically using a modified version of the DTNB-coupled assay, described by Hamilton et al.. Briefly, reactions were performed at 26 °C in 250 μL of HEPES buffer (pH 7.5, 40 mM) containing EDTA (1 mM), NADP^+ (30 μM), DTNB (25 μM), TS2 (1 μM), NADPH (150 μM), glycerol (0.02%), DMSO (1.75%), and recombinant HIS-LiTryR (7 nM). […] Reactions were started by addition of a mixture (50 μL/well) of the substrates (NADPH and TS2).
LiTryR oxidoreductase activity was monitored at 26 °C by an increase in absorbance at 412 nm in an EnSpire Multimode Plate Reader (PerkinElmer, Waltham, MA, USA). In this DTNB-coupled assay, one molecule of T(SH)2 reduces one molecule of DTNB, producing two TNB molecules. The TNB concentration was obtained by multiplying the absorbance values by 100 (50 μM TNB generates 0.5 arbitrary units of absorbance at 412 nm).
For IC50 determinations, the initial velocities were calculated from the slope of the initial linear part of the reaction curves. The initial velocities of the reaction progress curves in the presence of inhibitor (concentrations ranging from 0.1 to 25 μM) were normalized as a percentage with respect to the initial velocity in the presence of the inhibitor vehicle (DMSO). IC50 values were obtained by fitting these percentages to a nonlinear regression model with GraFit 6 software (Erithacus, Horley, Surrey, U.K.). All the assays were performed in triplicate.

Like-named read-outs stand apart in the source and are kept apart here. Some results are limits rather than exact numbers.

T1 sequence (A4HSF7 entry or part of it): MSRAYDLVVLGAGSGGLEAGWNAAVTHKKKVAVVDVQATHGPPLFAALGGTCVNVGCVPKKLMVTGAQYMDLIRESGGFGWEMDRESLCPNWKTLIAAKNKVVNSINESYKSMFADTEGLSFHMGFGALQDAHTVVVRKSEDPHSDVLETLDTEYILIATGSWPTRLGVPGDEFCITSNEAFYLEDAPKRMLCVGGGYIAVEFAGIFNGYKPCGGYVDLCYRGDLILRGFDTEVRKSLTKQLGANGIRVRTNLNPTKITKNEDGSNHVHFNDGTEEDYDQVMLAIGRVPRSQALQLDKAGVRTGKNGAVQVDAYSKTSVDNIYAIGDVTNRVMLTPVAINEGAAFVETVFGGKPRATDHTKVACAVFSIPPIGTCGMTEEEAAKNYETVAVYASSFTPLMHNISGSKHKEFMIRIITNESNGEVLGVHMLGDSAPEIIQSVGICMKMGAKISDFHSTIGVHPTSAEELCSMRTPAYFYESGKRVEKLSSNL
T2 sequence (A4HSF7 entry or part of it): as above

Turning to `CC[C@H](C)[C@H](NC(=O)CNC(=O)[C@@H](NC(=O)[C@H](CO)NC(=O)[C@H](CCC(N)=O)NC(=O)[C@@H](NC(=O)[C@@H](NC(=O)[C@H](CCCCN)NC(=O)[C@@H]1CCCN1C(=O)COCCOCCNC(=O)Cc1ccccc1)[C@@H](C)CC)[C@@H](C)CC)C(C)C)C(N)=O` [1a, Ph-CH2-CO-NH-(CH2)2-O-(CH2)2-O-CH2-CO-NH-PKIIQSVGI-NH2], the IC50 in test [1] (SEM) is 9.4 ± 0.1 µM; in test [2] (SEM), 22 ± 0.7 µM.
In the same order, the values of `CC[C@H](C)[C@H](NC(=O)CNC(=O)[C@@H](NC(=O)[C@H](CO)NC(=O)[C@H](CCC(N)=O)NC(=O)[C@@H](NC(=O)[C@@H](NC(=O)[C@H](CCCCN)NC(=O)[C@@H]1CCCN1C(=O)COCCOCCNC(=O)Cc1ccc2ccccc2c1)[C@@H](C)CC)[C@@H](C)CC)C(C)C)C(N)=O` [1b, Naphthyl-CH2-CO-NH-(CH2)2-O-(CH2)2-O-CH2-CO-NH-PKIIQSVGI-NH2] are 8.7 ± 0.5 µM and 18.2 ± 1 µM.
In the same order, the values of `CC[C@H](C)[C@H](NC(=O)CNC(=O)[C@@H](NC(=O)[C@H](CO)NC(=O)[C@H](CCC(N)=O)NC(=O)[C@@H](NC(=O)[C@@H](NC(=O)[C@H](CCCCN)NC(=O)[C@@H]1CCCN1C(=O)COCCOCCNC(=O)Cc1ccc(-c2ccccc2)cc1)[C@@H](C)CC)[C@@H](C)CC)C(C)C)C(N)=O` [1c, Biphenyl-CH2-CO-NH-(CH2)2-O-(CH2)2-O-CH2-CO-NH-PKIIQSVGI-NH2] are 22.9 ± 1.4 µM and 16.6 ± 3.8 µM.
In the same order, the values of `CC[C@H](C)[C@H](NC(=O)CNC(=O)[C@@H](NC(=O)[C@H](CO)NC(=O)[C@H](CCC(N)=O)NC(=O)[C@@H](NC(=O)[C@@H](NC(=O)[C@H](CCCCN)NC(=O)[C@@H]1CCCN1C(=O)COCCOCCNC(=O)CN1C(=O)c2cccc3cccc1c23)[C@@H](C)CC)[C@@H](C)CC)C(C)C)C(N)=O` [1d] are 7.8 ± 0.1 µM and 6.7 ± 0.4 µM.
Regarding `CC[C@H](C)[C@H](NC(=O)CNC(=O)[C@@H](NC(=O)[C@H](CO)NC(=O)[C@H](CCC(N)=O)NC(=O)[C@@H](NC(=O)[C@@H](NC(=O)[C@H](CCCCN)NC(=O)[C@@H]1CCCN1C(=O)COCCNC(=O)Cc1ccccc1)[C@@H](C)CC)[C@@H](C)CC)C(C)C)C(N)=O` [2a, Ph-CH2-CO-NH-(CH2)2-O-CH2-CO-NH-PKIIQSVGI-NH2], the figures for the IC50 in test [1] (SEM) and in test [2] (SEM) were 15 ± 0.6 µM and 22.3 ± 1.5 µM, respectively.
For the molecule `CC[C@H](C)[C@H](NC(=O)CNC(=O)[C@@H](NC(=O)[C@H](CO)NC(=O)[C@H](CCC(N)=O)NC(=O)[C@@H](NC(=O)[C@@H](NC(=O)[C@H](CCCCN)NC(=O)[C@@H]1CCCN1C(=O)COCCNC(=O)CN1C(=O)c2cccc3cccc1c23)[C@@H](C)CC)[C@@H](C)CC)C(C)C)C(N)=O` [2d], the IC50 in test [1] (SEM) stood at 7.1 ± 0.1 µM; in test [2] (SEM) it was 6.9 ± 1.9 µM.
In the same order, the values of `CC[C@H](C)[C@H](NC(=O)CNC(=O)[C@@H](NC(=O)[C@H](CO)NC(=O)[C@H](CCC(N)=O)NC(=O)[C@@H](NC(=O)[C@@H](NC(=O)[C@H](CCCCN)NC(=O)[C@@H]1CCCN1C(=O)CCNC(=O)Cc1ccccc1)[C@@H](C)CC)[C@@H](C)CC)C(C)C)C(N)=O` [3a, Ph-CH2-CO-NH-(CH2)2-CO-NH-PKIIQSVGI-NH2] are 12.7 ± 1.1 µM and 20.6 ± 1.6 µM.
`CC[C@H](C)[C@H](NC(=O)CNC(=O)[C@@H](NC(=O)[C@H](CO)NC(=O)[C@H](CCC(N)=O)NC(=O)[C@@H](NC(=O)[C@@H](NC(=O)[C@H](CCCCN)NC(=O)[C@@H]1CCCN1C(=O)Cc1ccccc1)[C@@H](C)CC)[C@@H](C)CC)C(C)C)C(N)=O` [4a, Ph-CH2-CO-NH-PKIIQSVGI-NH2]: the IC50 in test [1] (SEM) worked out at 11.4 ± 0.1 µM; in test [2] (SEM), 10.3 ± 1.8 µM.
Turning to `CC[C@H](C)[C@H](NC(=O)CNC(=O)[C@@H](NC(=O)[C@H](CO)NC(=O)[C@H](CCC(N)=O)NC(=O)[C@@H](NC(=O)[C@@H](NC(=O)[C@H](CCCCN)NC(=O)[C@@H]1CCCN1C(=O)CN1C(=O)c2cccc3cccc1c23)[C@@H](C)CC)[C@@H](C)CC)C(C)C)C(N)=O` [4d], the IC50 in test [1] (SEM) was 7.1 ± 0.2 µM; in test [2] (SEM), 8 ± 1.5 µM.
`CC[C@H](C)[C@H](NC(=O)CNC(=O)[C@@H](NC(=O)[C@H](CO)NC(=O)[C@H](CCC(N)=O)NC(=O)[C@@H](NC(=O)[C@@H](NC(=O)[C@H](CCCCN)NC(=O)[C@@H]1CCCN1C(C)=O)[C@@H](C)CC)[C@@H](C)CC)C(C)C)C(N)=O` [TRL38, Ac-PKIIQSVGI-NH2, reference compound]: in test [1], the IC50 is greater than 25 µM and the “LiTryR dimer at 25 μM (%)” value is given as 61.4%. Besides, the “LiTryR oxidoreductase activity at 25 μM (%)” value in test [2] (at 25 μM, reliable IC50 could not be determined) was determined as 65.1%. Further, in test [2], the IC50 was greater than 25 µM.
With `CC[C@H](C)[C@H](NC(=O)CNC(=O)[C@@H](NC(=O)[C@H](CO)NC(=O)[C@H](CCC(N)=O)NC(=O)[C@@H](NC(=O)[C@@H](NC(=O)[C@H](CCCCN)NC(=O)[C@@H]1CCCN1C(=O)COCCOCCNCc1ccccc1)[C@@H](C)CC)[C@@H](C)CC)C(C)C)C(N)=O` [compound 7, Ph-CH2-NH-(CH2)2-O-(CH2)2-O-CH2-CO-NH-PKIIQSVGI-NH2], the IC50 was 12.6 ± 0.6 µM in test [1] (SEM) and 8.3 ± 1.4 µM in test [2] (SEM).
In the same order, the values of `CC[C@H](C)[C@H](NC(=O)CNC(=O)[C@@H](NC(=O)[C@H](CO)NC(=O)[C@H](CCC(N)=O)NC(=O)[C@@H](NC(=O)[C@@H](NC(=O)[C@H](CCCCN)NC(=O)[C@@H]1CCCN1C(=O)COCCOCCN(Cc1ccccc1)Cc1ccccc1)[C@@H](C)CC)[C@@H](C)CC)C(C)C)C(N)=O` [compound 8, (Ph-CH2)2N-(CH2)2-O-(CH2)2-O-CH2-CO-NH-PKIIQSVGI-NH2] are 7.1 ± 0.5 µM and 9.8 ± 2.3 µM.
Consider `CC[C@H](C)[C@H](NC(=O)CNC(=O)[C@@H](NC(=O)[C@H](CO)NC(=O)[C@H](CCC(N)=O)NC(=O)[C@@H](NC(=O)[C@@H](NC(=O)[C@H](CCCCN)NC(=O)[C@@H]1CCCN1C(=O)COCCOCC[N+](C)(C)Cc1ccccc1)[C@@H](C)CC)[C@@H](C)CC)C(C)C)C(N)=O` [compound 9, (Ph-CH2)(Me)2N^+-(CH2)2-O-(CH2)2-O-CH2-CO-NH-PKIIQSVGI-NH2 I^−], for which, in test [1], the IC50 is greater than 25 µM and the “LiTryR dimer at 25 μM (%)” value was 53.3%. Besides, the IC50 in test [2] (SEM) was determined as 18.3 ± 2.6 µM.
On to `CC[C@H](C)[C@H](NC(=O)CNC(=O)[C@@H](NC(=O)[C@H](CO)NC(=O)[C@H](CCC(N)=O)NC(=O)[C@@H](NC(=O)[C@@H](NC(=O)[C@H](CCCCN)NC(=O)[C@@H]1CCCN1C(=O)COCCOCC[N+](C)(Cc1ccccc1)Cc1ccccc1)[C@@H](C)CC)[C@@H](C)CC)C(C)C)C(N)=O` [compound 10, (Ph-CH2)2(Me)N^+-(CH2)2-O-(CH2)2-O-CH2-CO-NH-PKIIQSVGI-NH2 I^−], for which the IC50 in test [1] (SEM) stood at 21.2 ± 3.5 µM; in test [2] (SEM), 9.2 ± 1.1 µM.
